Tests used:
[1] = tested on: IL-4 stimulated expression of CD23 in human Ramos B cells (JAK-1 and JAK-3); experiment: Assay for Ramos B-Cell Line Stimulated with IL-4 (CD23 upregulation, FACS); assay type: cell-based; settings: Ramos B-cell line stimulated with IL-4; CD23 expression by FACS; read-out: IC50, Example 41
Procedure, shortened: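 Steps: Ramos B cells are suspended in RPMI with 5% serum, exposed to compound for 1 h at 37 °C, stimulated with IL-4 (final 50 units/mL) for 20-24 h, stained for CD23 and analysed by flow cytometry. IC50 is calculated.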

Primary human T-cells = experiment: Primary Human T-Cell Proliferation Assay Stimulated with IL-2 (CellTiter-Glo); assay type: cell-based; settings: primary human T-cell proliferation stimulated with IL-2; read-out: IC50, Example 42
Procedure, shortened: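 Peripheral blood T-cells pre-activated with anti-CD3/anti-CD28 and IL-2 were washed free of IL-2, then cultured with compound plus IL-2 for 72 hours at 37° C, duplicate wells. Viability read as ATP by CellTiter-Glo luminescence; IC50 reported.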

Compound “5-Fluoro-N4-[4-(3-methyl-1,2,4-oxadiazol-3-yl)methyleneoxyphenyl]-N2-[(3-N-propanamido)sulfonylphenyl)]-2,4-pyrimidinediamine [Compound I-262]” has an IC50 [1] of 78.3 nM and an IC50 (Primary human T-cells) of 164 nM.
`Cc1ccc(Nc2ncc(F)c(Nc3cccc(OC4CCCN(C)C4)c3)n2)cc1S(N)(=O)=O` (racemic) [II-1, Racemic N2-(3-aminosulfonyl-4-methylphenyl)-5-fluoro-N4-{3-[(1-methylpiperidin-3-yl)oxy]phenyl}-2,4-pyrimidinediamine] gave an IC50 [1] of 182 nM and an IC50 (Primary human T-cells) of 1140 nM.
Compound `Cc1ccc(Nc2ncc(F)c(Nc3ccc(OC4CCCN(C)C4)c(Cl)c3)n2)cc1S(N)(=O)=O` (racemic) [II-3, Racemic N2-(3-aminosulfonyl-4-methylphenyl)-N4-{3-chloro-4-[(1-methylpiperidin-3-yl)oxy]phenyl}-5-fluoro-2,4-pyrimidinediamine] has an IC50 [1] of 84 nM and an IC50 (Primary human T-cells) of 918 nM.
In the case of `Cc1ccc(Nc2ncc(F)c(Nc3ccc(OC4CCCN(C)C4)cc3)n2)cc1S(N)(=O)=O` (racemic) [II-4, Racemic N2-(3-aminosulfonyl-4-methylphenyl)-5-fluoro-N4-{4-[(1-methylpiperidin-3-yl)oxy]phenyl}-2,4-pyrimidinediamine], the IC50 [1] is reported as 316 nM and the IC50 (Primary human T-cells) is reported as 2370 nM.
Compound `N#CCOc1ccc(Nc2nc(Nc3cccc(S(N)(=O)=O)c3)ncc2F)cc1` [Compound I-17, N2-(3-Aminosulfonyl)phenyl-N4-(4-cyanomethoxy)phenyl-5-fluoro-2,4-pyrimidinediamine] has an IC50 [1] of 48.7 nM and an IC50 (Primary human T-cells) of 43.2 nM.
`CN1CCN(S(=O)(=O)c2cccc(Nc3ncc(F)c(Nc4ccc(OCC#N)cc4)n3)c2)CC1` [Compound I-19, N4-(4-Cyanomethoxy)phenyl-5-fluoro-N2-[3-(4-methylpiperazin-1-yl)sulfonyl]phenyl-2,4-pyrimidinediamine] showed an IC50 [1] of 509 nM and an IC50 (Primary human T-cells) of 1040 nM.
`Cc1ccc(Nc2ncc(F)c(Nc3ccc(OCC#N)cc3)n2)cc1S(N)(=O)=O` [Compound I-20, N2-(3-Aminosulfonyl-4-methyl)phenyl-N4-(4-cyanomethoxy)phenyl-5-fluoro-2,4-pyrimidinediamine] showed an IC50 [1] of 36.7 nM and an IC50 (Primary human T-cells) of 66.2 nM.
With `N#CCOc1ccc(Nc2nc(Nc3ccc(Cl)c(S(N)(=O)=O)c3)ncc2F)cc1` [Compound I-21, N2-(3-Aminosulfonyl-4-chlorophenyl)-N4-(4-cyanomethoxy)phenyl-5-fluoro-2,4-pyrimidinediamine] the IC50 [1] was 93 nM and the IC50 (Primary human T-cells) was 258 nM.
`Cc1cc(Nc2nc(Nc3ccc(S(N)(=O)=O)cc3)ncc2F)ccc1OCC#N` [Compound I-22, N2-(4-Aminosulfonyl)phenyl-N4-(4-cyanomethoxy-3-methyl)phenyl-5-fluoro-2,4-pyrimidinediamine] gave an IC50 [1] of 236 nM and an IC50 (Primary human T-cells) of 944 nM.
`Cc1cc(Nc2nc(Nc3cccc(S(N)(=O)=O)c3)ncc2F)ccc1OCC#N` [Compound I-23, N2-(3-Aminosulfonyl)phenyl-N4-(4-cyanomethoxy-3-methyl)phenyl-5-fluoro-2,4-pyrimidinediamine] gave an IC50 [1] of 30.1 nM and an IC50 (Primary human T-cells) of 88.2 nM.
In the case of `Cc1cc(Nc2nc(Nc3ccc(C)c(S(N)(=O)=O)c3)ncc2F)ccc1OCC#N` [Compound I-24, N2-(3-Aminosulfonyl-4-methyl)phenyl-N4-(4-cyanomethoxy-3-methyl)phenyl-5-fluoro-2,4-pyrimidinediamine], the IC50 [1] is reported as 54.2 nM and the IC50 (Primary human T-cells) is reported as 296 nM.
Compound `Cc1cc(Nc2nc(Nc3ccc(S(N)(=O)=O)cc3)ncc2F)cc(C)c1OCC#N` [Compound I-25, N2-(4-Aminosulfonyl)phenyl-N4-(4-cyanomethoxy-3,5-dimethyl)phenyl-5-fluoro-2,4-pyrimidinediamine] has an IC50 [1] of 55.8 nM and an IC50 (Primary human T-cells) of 1610 nM.
`Cc1cc(Nc2nc(Nc3cccc(S(N)(=O)=O)c3)ncc2F)cc(C)c1OCC#N` [Compound I-26, N2-(3-Aminosulfonyl)phenyl-N4-(4-cyanomethoxy-3,5-dimethyl)phenyl-5-fluoro-2,4-pyrimidinediamine] showed an IC50 [1] of 37.8 nM and an IC50 (Primary human T-cells) of 401 nM.
`Cc1ccc(Nc2ncc(F)c(Nc3cc(C)c(OCC#N)c(C)c3)n2)cc1S(N)(=O)=O` [Compound I-27, N2-(3-Aminosulfonyl-4-methyl)phenyl-N4-(4-cyanomethoxy-3,5-dimethyl)phenyl-5-fluoro-2,4-pyrimidinediamine] gave an IC50 [1] of 61.9 nM and an IC50 (Primary human T-cells) of 914 nM.
`COc1cc(Nc2ncc(F)c(Nc3ccc(OCC#N)cc3)n2)ccc1S(N)(=O)=O` [Compound I-28, N2-(4-Aminosulfonyl-3-methoxyphenyl)-N4-(4-cyanomethoxy)phenyl-5-fluoro-2,4-pyrimidinediamine] was tested, and the IC50 [1] was 64.5 nM and the IC50 (Primary human T-cells) was 560 nM.
`COc1cc(Nc2ncc(F)c(Nc3cc(C)c(OCC#N)c(C)c3)n2)ccc1S(N)(=O)=O` [Compound I-32, N2-(4-Aminosulfonyl-3-methoxy)phenyl-N4-(4-cyanomethoxy-3,5-dimethyl)phenyl-5-fluoro-2,4-pyrimidinediamine] gave an IC50 [1] of 161 nM and an IC50 (Primary human T-cells) of 2780 nM.
`N#CCOc1ccc(Nc2nc(Nc3ccc(F)c(S(N)(=O)=O)c3)ncc2F)cc1` [Compound I-33, N2-(3-Aminosulfonyl-4-fluoro)phenyl-N4-(4-cyanomethoxy)phenyl-5-fluoro-2,4-pyrimidinediamine] gave an IC50 [1] of 96.5 nM and an IC50 (Primary human T-cells) of 170 nM.
Compound `Cc1cc(COc2ccc(Nc3nc(Nc4cc(Cl)c(C)c(S(N)(=O)=O)c4)ncc3F)cc2C)no1` [Compound I-216, N2-(3-Aminosulfonyl-5-chloro-4-methylphenyl)-5-fluoro-N4-[3-methyl-4-(5-methylisoxazol-3-yl)methyleneoxyphenyl]-2,4-pyrimidinediamine] has an IC50 [1] of 205 nM and an IC50 (Primary human T-cells) of 493 nM.
`Cc1cc(COc2ccc(Nc3nc(Nc4cc(C)c(F)c(S(N)(=O)=O)c4)ncc3F)cc2)no1` [Compound I-217, N2-(3-Aminosulfonyl-4-fluoro-5-methylphenyl)-5-fluoro-N4-[4-(5-methylisoxazol-3-yl)methyleneoxyphenyl]-2,4-pyrimidinediamine] was tested, and the IC50 [1] was 25 nM and the IC50 (Primary human T-cells) was 217 nM.
In the case of `Cc1cc(COc2ccc(Nc3nc(Nc4cc(C)c(Cl)c(S(N)(=O)=O)c4)ncc3F)cc2)no1` [Compound I-218, N2-(3-Aminosulfonyl-4-chloro-5-methylphenyl)-5-fluoro-N4-[4-(5-methylisoxazol-3-yl)methyleneoxyphenyl]-2,4-pyrimidinediamine], the IC50 [1] is reported as 72.6 nM and the IC50 (Primary human T-cells) is reported as 116 nM.
Work on `Cc1cc(COc2ccc(Nc3nc(Nc4ccc(C)c(S(N)(=O)=O)c4)ncc3F)cc2)no1` [Compound I-219, N2-(3-Aminosulfonyl-4-methylphenyl)-5-fluoro-N4-[4-(5-methylisoxazol-3-yl)methyleneoxyphenyl]-2,4-pyrimidinediamine] yielded an IC50 [1] of 31.6 nM and an IC50 (Primary human T-cells) of 123 nM.
`Cc1cc(COc2ccc(Nc3nc(Nc4ccc(C)c(S(N)(=O)=O)c4)ncc3F)cc2Cl)no1` [Compound I-221, N2-(3-Aminosulfonyl-4-methylphenyl)-N4-[3-chloro-4-(5-methylisoxazol-3-yl)methyleneoxyphenyl]-5-fluoro-2,4-pyrimidinediamine] gave an IC50 [1] of 344 nM and an IC50 (Primary human T-cells) of 2680 nM.
`Cc1cc(COc2ccc(Nc3nc(Nc4ccc(C)c(S(N)(=O)=O)c4)ncc3F)cc2F)no1` [Compound I-222, N2-(3-Aminosulfonyl-4-methylphenyl)-5-fluoro-N4-[3-fluoro-4-(5-methylisoxazol-3-yl)methyleneoxyphenyl]-2,4-pyrimidinediamine] gave an IC50 [1] of 33.1 nM and an IC50 (Primary human T-cells) of 582 nM.
For `Cc1cc(COc2ccc(Nc3nc(Nc4cc(Cl)c(C)c(S(N)(=O)=O)c4)ncc3F)cc2F)no1` [Compound I-223, N2-(3-Aminosulfonyl-5-chloro-4-methylphenyl)-5-fluoro-N4-[3-fluoro-4-(5-methylisoxazol-3-yl)methyleneoxyphenyl]-2,4-pyrimidinediamine], the IC50 [1] was 88 nM and the IC50 (Primary human T-cells) was 625 nM.
For `Cc1cc(COc2ccc(Nc3nc(Nc4cc(C)c(F)c(S(N)(=O)=O)c4)ncc3F)cc2F)no1` [Compound I-224, N2-(3-Aminosulfonyl-4-fluoro-5-methylphenyl)-5-fluoro-N4-[3-fluoro-4-(5-methylisoxazol-3-yl)methyleneoxyphenyl]-2,4-pyrimidinediamine], the IC50 [1] was 36.1 nM and the IC50 (Primary human T-cells) was 194 nM.
`Cc1noc(COc2ccc(Nc3nc(Nc4ccc(S(N)(=O)=O)cc4)ncc3F)cc2)n1` [Compound I-231, N2-(4-Aminosulfonylphenyl)-5-fluoro-N4-[4-(3-methyl-1,2,4-oxadiazol-5-yl)methyleneoxyphenyl]-2,4-pyrimidinediamine] was tested, and the IC50 [1] was 94.7 nM and the IC50 (Primary human T-cells) was 290 nM.
With `Cc1cc(COc2ccc(Nc3nc(Nc4ccc(F)c(S(N)(=O)=O)c4)ncc3F)cc2)no1` [Compound I-233, N2-(3-Aminosulfonyl-4-fluorophenyl)-5-fluoro-N4-[4-(5-methylisoxazol-3-yl)methyleneoxyphenyl]-2,4-pyrimidinediamine] the IC50 [1] was 148 nM and the IC50 (Primary human T-cells) was 377 nM.
`Cc1cc(COc2ccc(Nc3nc(Nc4ccc(C)c(S(N)(=O)=O)c4)ncc3F)cc2C)no1` [Compound I-234, N2-(3-Aminosulfonyl-4-methylphenyl)-5-fluoro-N4-[3-methyl-4-(5-methylisoxazol-3-yl)methyleneoxyphenyl]-2,4-pyrimidinediamine] showed an IC50 [1] of 102 nM and an IC50 (Primary human T-cells) of 1010 nM.
With `CNS(=O)(=O)c1cc(Nc2ncc(F)c(Nc3ccc(OCc4cc(C)on4)cc3)n2)ccc1C` [Compound I-235, 5-Fluoro-N2-[3-(N-methyl)aminosulfonyl-4-methylphenyl]-N4-[4-(5-methylisoxazol-3-yl)methyleneoxyphenyl]-2,4-pyrimidinediamine] the IC50 [1] was 178 nM and the IC50 (Primary human T-cells) was 470 nM.
